Assays:
[1] = target: Serine/threonine-protein kinase Chk2 (Homo sapiens) (UniProt O96017); experiment: CHK2 DUNDEE kinase screen (BI); conditions: Compound concentration 10.0 uM
[2] = target: Cyclin-dependent kinase 9 (Homo sapiens) (UniProt P50750); conditions: Compound concentration 1.0 uM
[3] = target: Sodium-dependent serotonin transporter (Homo sapiens) (UniProt P31645); conditions: Compound concentration 10.0 uM
[4] = target: Dual specificity mitogen-activated protein kinase kinase 1 (Homo sapiens) (UniProt Q02750); experiment: MKK1 DUNDEE kinase screen (BI); conditions: Oryctolagus cuniculus; Compound concentration 10.0 uM
[5] = target: Mitogen-activated protein kinase kinase kinase 19 (Homo sapiens) (UniProt Q56UN5); conditions: Compound concentration 1.0 uM
[6] = target: Polyunsaturated fatty acid lipoxygenase ALOX15 (Oryctolagus cuniculus) (UniProt P12530); experiment: 15LO Eurofins SafetyScreen44 (BI); conditions: Compound concentration 10.0 uM
[7] = target: Serine/threonine-protein kinase PAK 3 (Homo sapiens) (UniProt O75914); conditions: Compound concentration 1.0 uM
[8] = species on record: Homo sapiens; experiment: PKBDPH (PKB delta PH) DUNDEE kinase screen (BI); conditions: Compound concentration 10.0 uM
[9] = target: Kappa-type opioid receptor (Homo sapiens) (UniProt P41145); conditions: Compound concentration 10.0 uM
[10] = target: Tyrosine-protein kinase ZAP-70 (Homo sapiens) (UniProt P43403); conditions: Compound concentration 1.0 uM
[11] = target: Protein-tyrosine kinase 6 (Homo sapiens) (UniProt Q13882); conditions: Compound concentration 1.0 uM
[12] = target: Mitogen-activated protein kinase kinase kinase 3 (Homo sapiens) (UniProt Q99759); conditions: Compound concentration 1.0 uM
[13] = target: CDK6/cyclin D1 (Homo sapiens) (UniProt P24385+Q00534); conditions: Compound concentration 1.0 uM
[14] = target: Alpha-1B adrenergic receptor (Homo sapiens) (UniProt P35368); conditions: Compound concentration 10.0 uM
[15] = target: cAMP-dependent protein kinase catalytic subunit alpha (Homo sapiens) (UniProt P17612)

Mitogen-activated protein kinase kinase kinase 19 (Homo sapiens), sequence (Q56UN5 whole entry): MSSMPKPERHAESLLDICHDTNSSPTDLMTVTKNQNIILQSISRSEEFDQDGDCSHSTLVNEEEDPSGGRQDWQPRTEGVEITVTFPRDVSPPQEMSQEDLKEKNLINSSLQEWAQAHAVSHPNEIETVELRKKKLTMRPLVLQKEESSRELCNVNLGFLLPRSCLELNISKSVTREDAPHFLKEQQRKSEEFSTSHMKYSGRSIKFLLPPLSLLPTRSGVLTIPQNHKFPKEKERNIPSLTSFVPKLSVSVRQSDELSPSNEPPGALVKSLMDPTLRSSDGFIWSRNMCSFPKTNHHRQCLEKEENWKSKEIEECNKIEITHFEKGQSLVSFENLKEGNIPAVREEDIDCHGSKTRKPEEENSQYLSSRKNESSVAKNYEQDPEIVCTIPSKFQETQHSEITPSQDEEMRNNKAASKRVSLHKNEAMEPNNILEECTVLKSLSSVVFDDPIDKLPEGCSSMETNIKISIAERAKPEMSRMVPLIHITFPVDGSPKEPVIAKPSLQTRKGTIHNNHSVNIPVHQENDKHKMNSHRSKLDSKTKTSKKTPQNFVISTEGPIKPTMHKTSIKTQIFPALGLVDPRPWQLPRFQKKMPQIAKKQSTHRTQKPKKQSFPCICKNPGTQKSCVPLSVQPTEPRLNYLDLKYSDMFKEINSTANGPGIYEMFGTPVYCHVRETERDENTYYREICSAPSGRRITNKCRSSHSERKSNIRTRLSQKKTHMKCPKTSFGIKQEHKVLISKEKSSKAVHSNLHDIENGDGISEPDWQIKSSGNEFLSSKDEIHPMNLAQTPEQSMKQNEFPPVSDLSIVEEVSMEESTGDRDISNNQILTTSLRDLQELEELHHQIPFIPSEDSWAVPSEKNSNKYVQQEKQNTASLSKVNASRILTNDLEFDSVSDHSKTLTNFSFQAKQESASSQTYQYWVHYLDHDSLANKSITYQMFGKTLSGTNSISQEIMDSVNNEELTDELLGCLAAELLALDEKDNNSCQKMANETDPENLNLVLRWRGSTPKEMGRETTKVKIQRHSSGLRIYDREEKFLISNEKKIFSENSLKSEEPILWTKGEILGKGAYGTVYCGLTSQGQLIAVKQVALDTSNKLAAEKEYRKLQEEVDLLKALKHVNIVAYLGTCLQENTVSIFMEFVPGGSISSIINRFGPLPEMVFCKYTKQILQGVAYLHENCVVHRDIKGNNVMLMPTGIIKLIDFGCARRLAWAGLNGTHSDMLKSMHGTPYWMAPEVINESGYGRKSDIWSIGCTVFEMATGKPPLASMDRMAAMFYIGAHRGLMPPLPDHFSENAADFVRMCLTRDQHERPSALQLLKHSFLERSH
Tyrosine-protein kinase ZAP-70 (Homo sapiens), sequence (P43403 whole entry): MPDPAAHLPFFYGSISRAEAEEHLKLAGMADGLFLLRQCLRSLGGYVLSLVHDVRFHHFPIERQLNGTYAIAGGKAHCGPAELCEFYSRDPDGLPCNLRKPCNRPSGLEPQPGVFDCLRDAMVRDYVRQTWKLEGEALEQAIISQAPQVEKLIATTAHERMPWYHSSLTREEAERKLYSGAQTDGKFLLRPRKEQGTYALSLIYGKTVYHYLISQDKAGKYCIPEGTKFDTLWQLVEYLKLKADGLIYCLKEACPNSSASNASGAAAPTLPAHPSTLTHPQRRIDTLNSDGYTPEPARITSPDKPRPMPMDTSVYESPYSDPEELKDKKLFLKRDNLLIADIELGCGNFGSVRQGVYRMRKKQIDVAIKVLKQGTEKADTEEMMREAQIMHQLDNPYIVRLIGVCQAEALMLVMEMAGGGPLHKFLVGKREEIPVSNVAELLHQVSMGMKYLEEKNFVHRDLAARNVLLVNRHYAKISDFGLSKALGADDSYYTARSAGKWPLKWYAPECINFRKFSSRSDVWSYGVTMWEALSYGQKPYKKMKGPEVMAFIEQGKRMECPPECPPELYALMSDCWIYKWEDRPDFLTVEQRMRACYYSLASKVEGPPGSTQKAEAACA
Cyclin-dependent kinase 9 (Homo sapiens), sequence (P50750 whole entry): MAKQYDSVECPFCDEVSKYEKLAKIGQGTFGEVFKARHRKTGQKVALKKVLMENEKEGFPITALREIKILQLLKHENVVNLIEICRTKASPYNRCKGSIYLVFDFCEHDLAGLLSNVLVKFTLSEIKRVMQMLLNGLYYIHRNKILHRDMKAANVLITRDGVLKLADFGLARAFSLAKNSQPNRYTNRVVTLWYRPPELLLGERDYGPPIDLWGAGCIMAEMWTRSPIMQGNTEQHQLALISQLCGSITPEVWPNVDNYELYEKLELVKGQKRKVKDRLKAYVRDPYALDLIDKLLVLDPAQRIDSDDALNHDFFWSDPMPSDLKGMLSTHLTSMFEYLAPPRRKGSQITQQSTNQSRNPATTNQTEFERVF
Serine/threonine-protein kinase Chk2 (Homo sapiens), sequence (O96017 whole entry): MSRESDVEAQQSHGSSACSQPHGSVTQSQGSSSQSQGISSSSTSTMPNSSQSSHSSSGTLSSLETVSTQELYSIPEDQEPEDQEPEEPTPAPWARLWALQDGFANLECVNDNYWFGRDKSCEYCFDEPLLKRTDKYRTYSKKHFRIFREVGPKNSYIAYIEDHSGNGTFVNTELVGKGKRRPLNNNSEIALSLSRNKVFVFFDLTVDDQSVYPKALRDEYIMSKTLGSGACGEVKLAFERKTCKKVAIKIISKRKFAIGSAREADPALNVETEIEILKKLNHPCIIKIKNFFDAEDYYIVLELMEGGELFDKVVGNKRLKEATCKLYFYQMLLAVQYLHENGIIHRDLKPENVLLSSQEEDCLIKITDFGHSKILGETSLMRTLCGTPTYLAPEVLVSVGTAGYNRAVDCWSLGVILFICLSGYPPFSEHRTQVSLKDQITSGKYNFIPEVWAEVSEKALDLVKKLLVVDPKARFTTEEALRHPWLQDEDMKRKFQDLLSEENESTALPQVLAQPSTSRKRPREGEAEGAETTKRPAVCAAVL
Kappa-type opioid receptor (Homo sapiens), sequence (P41145 whole entry): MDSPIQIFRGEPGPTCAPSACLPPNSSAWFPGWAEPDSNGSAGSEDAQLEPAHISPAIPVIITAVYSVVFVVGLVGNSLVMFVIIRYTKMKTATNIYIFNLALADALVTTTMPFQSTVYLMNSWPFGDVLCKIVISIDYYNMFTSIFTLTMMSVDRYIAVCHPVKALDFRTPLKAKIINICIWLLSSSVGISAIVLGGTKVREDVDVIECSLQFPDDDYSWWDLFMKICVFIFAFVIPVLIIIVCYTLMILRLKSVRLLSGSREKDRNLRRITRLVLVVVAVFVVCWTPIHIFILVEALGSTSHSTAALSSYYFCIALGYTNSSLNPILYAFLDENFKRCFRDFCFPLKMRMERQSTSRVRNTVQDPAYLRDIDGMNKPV
Mitogen-activated protein kinase kinase kinase 3 (Homo sapiens), sequence (Q99759 whole entry): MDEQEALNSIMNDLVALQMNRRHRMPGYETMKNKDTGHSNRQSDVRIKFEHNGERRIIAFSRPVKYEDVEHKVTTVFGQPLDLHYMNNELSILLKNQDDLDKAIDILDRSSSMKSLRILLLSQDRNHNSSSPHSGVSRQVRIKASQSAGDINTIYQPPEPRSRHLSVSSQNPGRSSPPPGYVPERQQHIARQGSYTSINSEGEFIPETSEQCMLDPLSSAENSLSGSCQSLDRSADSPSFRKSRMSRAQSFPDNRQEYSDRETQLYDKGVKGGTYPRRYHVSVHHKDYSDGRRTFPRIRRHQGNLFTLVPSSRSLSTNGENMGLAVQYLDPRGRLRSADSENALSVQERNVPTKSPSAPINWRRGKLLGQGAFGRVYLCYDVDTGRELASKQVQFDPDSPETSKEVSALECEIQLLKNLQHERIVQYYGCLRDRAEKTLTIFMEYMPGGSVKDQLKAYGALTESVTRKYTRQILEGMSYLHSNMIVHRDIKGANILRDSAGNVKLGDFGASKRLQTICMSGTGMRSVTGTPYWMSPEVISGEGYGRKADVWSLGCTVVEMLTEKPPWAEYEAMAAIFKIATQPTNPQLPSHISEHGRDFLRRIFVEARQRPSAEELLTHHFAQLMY
Dual specificity mitogen-activated protein kinase kinase 1 (Homo sapiens), sequence (Q02750 whole entry): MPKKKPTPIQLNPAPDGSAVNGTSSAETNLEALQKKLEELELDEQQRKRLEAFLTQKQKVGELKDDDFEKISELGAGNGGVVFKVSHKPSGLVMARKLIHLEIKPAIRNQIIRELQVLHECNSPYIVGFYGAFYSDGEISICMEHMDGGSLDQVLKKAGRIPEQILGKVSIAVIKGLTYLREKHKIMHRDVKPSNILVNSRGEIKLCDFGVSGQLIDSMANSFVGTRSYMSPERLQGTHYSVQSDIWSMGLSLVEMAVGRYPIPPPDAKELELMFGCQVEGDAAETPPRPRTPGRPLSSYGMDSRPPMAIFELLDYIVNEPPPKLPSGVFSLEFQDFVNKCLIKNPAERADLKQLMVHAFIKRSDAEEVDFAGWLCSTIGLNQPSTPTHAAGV
Polyunsaturated fatty acid lipoxygenase ALOX15 (Oryctolagus cuniculus), sequence (P12530 whole entry): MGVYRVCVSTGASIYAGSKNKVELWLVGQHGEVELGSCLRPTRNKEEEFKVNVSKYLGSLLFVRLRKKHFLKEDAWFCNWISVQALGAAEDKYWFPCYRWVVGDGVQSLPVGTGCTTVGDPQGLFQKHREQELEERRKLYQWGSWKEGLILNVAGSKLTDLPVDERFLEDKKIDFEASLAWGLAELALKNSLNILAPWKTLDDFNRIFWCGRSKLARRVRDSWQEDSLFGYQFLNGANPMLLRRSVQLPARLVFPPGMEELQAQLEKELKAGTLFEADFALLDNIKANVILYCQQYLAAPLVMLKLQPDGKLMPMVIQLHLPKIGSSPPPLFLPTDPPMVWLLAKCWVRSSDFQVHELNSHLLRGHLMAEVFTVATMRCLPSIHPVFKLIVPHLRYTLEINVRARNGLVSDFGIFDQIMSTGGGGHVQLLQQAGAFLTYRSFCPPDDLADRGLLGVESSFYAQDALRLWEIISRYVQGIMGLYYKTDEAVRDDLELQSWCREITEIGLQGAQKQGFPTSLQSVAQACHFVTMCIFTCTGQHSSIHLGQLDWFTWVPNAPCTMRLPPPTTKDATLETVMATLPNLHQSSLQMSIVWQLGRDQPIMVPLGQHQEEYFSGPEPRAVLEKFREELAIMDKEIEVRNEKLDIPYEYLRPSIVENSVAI

CCC(F)(F)c1cc(N2CCC(S(C)(=O)=O)CC2)nc2sc(C(N)=O)c(N)c12 [BI-605906]
residual activity [1]: 49.7%
residual activity [2]: 91%
residual activity [3]: 108%
residual activity [4]: 19.3%
residual activity [5]: 98%
residual activity [6]: 79%
residual activity [7]: 101%
residual activity [8]: 75.6%
inhibition [9]: 8.09%
residual activity [10]: 95%
residual activity [11]: 98%
residual activity [12]: 98%
residual activity [13]: 100%
inhibition [14]: -0.02%
residual activity ([15]; Compound concentration 1.0 uM): 98%
residual activity ([15]; Compound concentration 10.0 uM): 71%
